Test results taken from patent US6506772B1, “Substituted [1,2,4]triazolo[1,5a]pyridine derivatives with activity as adenosine receptor ligands” (Hoffmann-La Roche Inc., priority 2000, dated 2003).

Legend:
[1] = target: T1, human adenosine A2A receptor (Homo sapiens, UniProt P29274); test: Human adenosine A2A receptor [3H]-SCH-58261 binding assay; conditions: for Ki: affinity to human adenosine A2A receptor, read-out: Ki HA2A; for selectivity (A1/A2a): calculated ratio of the affinity to the HA1 receptor to the HA2a receptor
T1 construct: expressed in transfected cells; host or cells: CHO cells, Semliki Forest virus expression system; membrane preparation
T1 sequence (P29274 whole entry): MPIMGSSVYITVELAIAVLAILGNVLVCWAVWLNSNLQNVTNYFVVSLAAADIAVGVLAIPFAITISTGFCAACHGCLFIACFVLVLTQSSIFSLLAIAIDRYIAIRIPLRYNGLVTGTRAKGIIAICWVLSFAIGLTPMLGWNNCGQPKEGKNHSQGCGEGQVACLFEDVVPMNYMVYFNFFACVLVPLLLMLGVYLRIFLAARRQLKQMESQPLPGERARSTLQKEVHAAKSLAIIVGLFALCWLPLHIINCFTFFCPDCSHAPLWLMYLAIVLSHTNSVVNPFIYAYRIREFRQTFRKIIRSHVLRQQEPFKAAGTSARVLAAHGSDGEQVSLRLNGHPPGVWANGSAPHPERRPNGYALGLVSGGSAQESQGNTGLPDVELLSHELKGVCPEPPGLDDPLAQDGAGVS

HA1 adenosine receptor = target: T2, HA1 adenosine receptor (Homo sapiens, UniProt P30542); test: Human adenosine A1 receptor affinity (Ki hA1); format: binding; conditions: affinity to human adenosine A1 receptor
T2 sequence (P30542 1-326): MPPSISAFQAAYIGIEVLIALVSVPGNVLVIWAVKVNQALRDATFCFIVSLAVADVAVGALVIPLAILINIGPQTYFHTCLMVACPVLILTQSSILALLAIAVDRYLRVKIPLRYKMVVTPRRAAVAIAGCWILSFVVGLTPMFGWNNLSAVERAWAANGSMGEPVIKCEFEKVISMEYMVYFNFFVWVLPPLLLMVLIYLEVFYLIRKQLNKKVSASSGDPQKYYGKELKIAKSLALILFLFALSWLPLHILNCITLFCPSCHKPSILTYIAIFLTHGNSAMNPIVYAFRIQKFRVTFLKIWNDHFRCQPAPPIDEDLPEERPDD

Structure (SMILES)	Ki [1] [nM]	selectivity (A1/A2a) [1]	Ki (HA1 adenosine receptor) [nM]
Cc1ccc(-c2nc3cc(C(=O)N4CCCC4)cc(N)n3n2)s1 [Example 196, [5-Amino-2-(5-methyl-thiophen-2-yl)-[1,2,4]triazolo[1,5-a]pyridin-7-yl]-pyrrolidin-1-yl-methanone]	52.2	8.3	432
Cc1ccc(-c2nc3cc(C(=O)NC(C)c4ccccc4)cc(N)n3n2)s1 (stereo not drawn) [Example 198, 5-Amino-2-(5-methyl-thiophen-2-yl)-[1,2,4]triazolo[1,5-a]pyridine-7-carboxylic acid (1-phenyl-ethyl)-amide]	174	0.6	112
COc1cc(CNC(=O)c2cc(N)n3nc(-c4ccc(C)s4)nc3c2)cc(OC)c1OC [Example 202, 5-Amino-2-(5-methyl-thiophen-2-yl)-[1,2,4]triazolo[1,5-a]pyridine-7-carboxylic acid 3,4,5-trimethoxy-benzylamide]	310	2.2	678
Cc1ccc(-c2nc3cc(C(=O)NC4CCc5ccccc54)cc(N)n3n2)s1 (stereo not drawn) [Example 203, 5-Amino-2-(5-methyl-thiophen-2-yl)-[1,2,4]triazolo[1,5-a]pyridine-7-carboxylic acid indan-1-ylamide]	60	1.1	66.2
CN(Cc1ccccc1)C(=O)c1cc(N)n2nc(-c3nccs3)nc2c1 [Example 204, 5-Amino-2-thiazol-2-yl-[1,2,4]triazolo[1,5-a]pyridine-7-carboxylic acid benzyl-methyl-amide]	41.7	7.8	325
Nc1cc(C(=O)NCc2ccc(Cl)cc2)cc2nc(-c3nccs3)nn12 [Example 205, 5-Amino-2-thiazol-2-yl-[1,2,4]triazolo[1,5-a]pyridine-7-carboxylic acid 4-chloro-benzylamide]	157	1.9	294
Nc1cc(C(=O)NCc2ccc(F)cc2)cc2nc(-c3nccs3)nn12 [Example 206, 5-Amino-2-thiazol-2-yl-[1,2,4]triazolo[1,5-a]pyridine-7-carboxylic acid 4-fluoro-benzylamide]	126	5.2	657
COc1ccc(CNC(=O)c2cc(N)n3nc(-c4nccs4)nc3c2)cc1OC [Example 208, 5-Amino-2-thiazol-2-yl-[1,2,4]triazolo[1,5-a]pyridine-7-carboxylic acid 3,4-dimethoxy-benzylamide]	316	5.9	1860
Nc1cc(C(=O)NCc2ccccc2)cc2nc(-c3ccccc3)nn12 [Example 216, 5-Amino-2-phenyl-[1,2,4]triazolo[1,5-a]pyridine-7-carboxylic acid benzylamide]	64.1	2.3	149
CC(NC(=O)c1cc(N)n2nc(-c3ccccc3)nc2c1)c1ccccc1 (stereo not drawn) [Example 217, 5-Amino-2-phenyl-[1,2,4]triazolo[1,5-a]pyridine-7-carboxylic acid (1-phenyl-ethyl)-amide]	84.6	0.9	72.6

Further lines, results first:

Ki [1] [nM]	selectivity (A1/A2a) [1]	Ki (HA1 adenosine receptor) [nM]	Structure (SMILES)
178	0.5	90.3	Cc1ccc(-c2nc3cc(C(=O)NCc4ccccc4)cc(N)n3n2)s1 [Example 197, 5-Amino-2-(5-methyl-thiophen-2-yl)-[1,2,4]triazolo[1,5-a]pyridine-7-carboxylic acid benzylamide]
30.2	1.2	36.9	Cc1ccc(-c2nc3cc(C(=O)NCc4ccccc4Cl)cc(N)n3n2)s1 [Example 199, 5-Amino-2-(5-methyl-thiophen-2-yl)-[1,2,4]triazolo[1,5-a]pyridine-7-carboxylic acid 2-chloro-benzylamide]
22	1.7	37.9	Cc1ccc(-c2nc3cc(C(=O)NCc4ccccc4Br)cc(N)n3n2)s1 [Example 200, 5-Amino-2-(5-methyl-thiophen-2-yl)-[1,2,4]triazolo[1,5-a]pyridine-7-carboxylic acid 2-bromo-benzylamide]
31.3	1.1	33	COc1ccccc1CNC(=O)c1cc(N)n2nc(-c3ccc(C)s3)nc2c1 [Example 201, 5-Amino-2-(5-methyl-thiophen-2-yl)-[1,2,4]triazolo[1,5-a]pyridine-7-carboxylic acid 2-methoxy-benzylamide]
187	2.8	533	COc1ccc(CNC(=O)c2cc(N)n3nc(-c4nccs4)nc3c2)cc1 [Example 207, 5-Amino-2-thiazol-2-yl-[1,2,4]triazolo[1,5-a]pyridine-7-carboxylic acid 4-methoxy-benzylamide]
48.6	6.1	299	Cc1ccc(-c2nc3cc(C(=O)NCc4ccccc4)cc(N)n3n2)o1 [Example 210, 5-Amino-2-(5-methyl-furan-2-yl)-[1,2,4]triazolo[1,5-a]pyridine-7-carboxylic acid benzylamide]
57.3	5.2	298	Cc1ccc(-c2nc3cc(C(=O)NC(C)c4ccccc4)cc(N)n3n2)o1 (stereo not drawn) [Example 211, 5-Amino-2-(5-methyl-furan-2-yl)-[1,2,4]triazolo[1,5-a]pyridine-7-carboxylic acid (1-phenyl-ethyl)-amide]
190	3.3	634	Cc1ccc(-c2nc3cc(C(=O)NCc4ccc(Cl)cc4)cc(N)n3n2)o1 [Example 212, 5-Amino-2-(5-methyl-furan-2-yl)-[1,2,4]triazolo[1,5-a]pyridine-7-carboxylic acid 4-chloro-benzylamide]
73.2	4.7	343	Cc1ccc(-c2nc3cc(C(=O)NCc4ccc(F)cc4)cc(N)n3n2)o1 [Example 213, 5-Amino-2-(5-methyl-furan-2-yl)-[1,2,4]triazolo[1,5-a]pyridine-7-carboxylic acid 4-fluoro-benzylamide]
14.6	7.6	111	COc1ccccc1CNC(=O)c1cc(N)n2nc(-c3ccc(C)o3)nc2c1 [Example 214, 5-Amino-2-(5-methyl-furan-2-yl)-[1,2,4]triazolo[1,5-a]pyridine-7-carboxylic acid 2-methoxy-benzylamide]
295	5.2	1540	COc1ccc(CNC(=O)c2cc(N)n3nc(-c4ccc(C)o4)nc3c2)cc1 [Example 215, 5-Amino-2-(5-methyl-furan-2-yl)-[1,2,4]triazolo[1,5-a]pyridine-7-carboxylic acid 4-methoxy-benzylamide]
47.2	2.5	116	Nc1cc(C(=O)NCc2ccccc2Cl)cc2nc(-c3ccccc3)nn12 [Example 218, 5-Amino-2-phenyl-[1,2,4]triazolo[1,5-a]pyridine-7-carboxylic acid 2-chloro-benzylamide]
30	4.4	133	Nc1cc(C(=O)NCc2ccccc2Br)cc2nc(-c3ccccc3)nn12 [Example 219, 5-Amino-2-phenyl-[1,2,4]triazolo[1,5-a]pyridine-7-carboxylic acid 2-bromo-benzylamide]
